Literature values in patent publication US20050008656A1, “Compositions and methods for an orally administered inhibitor of biting insects” (priority 2003, published 2005).
Blank lines part the entries; values can stand above or below the compound they belong to.

Experiments:
[1] = in vivo
biting insects = settings: ingested
[2] = in vivo; remark: listed apart in the source

Compound: O=C(O)CCCC[C@@H]1SC[C@@H]2NC(=O)N[C@@H]21 [Biotin]
toxicity (in words) [1]: No toxic levels are known

Compound: CCN(CC)C(=O)c1cccc(C)c1 [DEET, N, N-diethyl-3-methylbenzamide, reference compound]
toxicity (in words) [1]: toxicity, including encephalopathy and seizures

dose above which flushing by dilating the blood vessels occurs [1]: > 200 mg
Compound: O=C(O)c1cccnc1 [Nicotinic acid]

Compound: CC1CCC(C(C)(C)O)C(O)C1 (stereo not shown) [PMD, p-menthane-3,8-diol, reference compound]
eye irritation [1]: significant eye irritation

Compound: C/C=C/C=C/C(=O)O [Sorbic acid]
toxicity (in words) [1]: non-toxic even when taken in large quantities

Compound: Cc1ncc(CO)c(CO)c1O [Vitamin B6, Pyridoxine]
dosage above which neurological damage may be caused [1]: > 2,000 mg per day

Compound: C[N+](C)(C)CCO [choline]
maximum level set for safety [1]: 3.5 g/day

Compound: O[C@H]1[C@H](O)[C@@H](O)[C@H](O)[C@@H](O)[C@H]1O [inositol]
toxicity (in words) [1]: No toxic effects known

Compound: Cc1ncc(C[n+]2csc(CCO)c2C)c(N)n1 [thiamine]
effectiveness at inhibiting insects from biting (biting insects): not effective

Compound: Cyanocobalamin [B12]
time needed to be absorbed [2]: ~3 h
